# Source: patent US5807983A, “GNRH antagonist betides” (The Salk Institute for Biological Studies, priority 1996, dated 1998)
# Tested on: ovulation in mature female Sprague-Dawley rats
# Experiment: standard in vivo rat anti-ovulation test
# Conditions: injected in bacteriostatic water at about noon on the day of proestrus
# Description: The betide is assayed in vivo to determine its effectiveness to prevent ovulation in female rats. Inthis test, a specified number of mature female Sprague-Dawley rats, e.g. five to ten, each having a body weight from 225 to 250 grams, are injected with a specified microgram dosage of the betide in bacteriostatic water at about noon on the day of proestrus. Proestrus is the […]. A separate female rat group is used as a control to which the peptide is not administered. Each of the control female rats ovulates on the evening of proestrus; the number of the rats treated which ovulate is recorded.
Compound,anti-ovulatory activity: rats ovulating out of rats treated (dosage 1 μg),anti-ovulatory activity: rats ovulating out of rats treated (dosage 2.5 μg),anti-ovulatory activity: rats ovulating out of rats treated (dosage 0.5 μg),anti-ovulatory activity: rats ovulating out of rats treated (dosage 10 μg),anti-ovulatory activity: rats ovulating out of rats treated (dosage 5 μg)
Ac-γ-(2-naphthoyl)amidoGly-4Cl-D-Phe-D-3Pal-Ser-Aph(atz)-D-Aph(atz)- Leu-Lys(isopropyl)-Pro-D-Ala-NH2 [Betide No. 3A first isomer],5 out of 8,0/8,–,–,–
"CC(=O)Nc1ccc(C[C@H](NC(=O)C(NC(=O)[C@@H](Cc2cccnc2)NC(=O)[C@@H](Cc2ccc(Cl)cc2)NC(=O)[C@@H](Cc2ccc3ccccc3c2)NC(C)=O)N(C)C=O)C(=O)N[C@H](Cc2ccc(NC(C)=O)cc2)C(=O)N[C@@H](CC(C)C)C(=O)N[C@@H](CCCCNC(C)C)C(=O)N2CCC[C@H]2C(=O)N[C@H](C)C(N)=O)cc1 (single isomer, unassigned) [Betide No. 2 one isomer, Ac-D-2Nal-D-4Cpa-D-3Pal-D/L-(methyl,formyl)aminoGly-Aph(Ac)-D-Aph(Ac)-Leu- Lys(isopropyl)-Pro-D-Ala-NH2]",–,5 out of 8,–,–,–
Ac-D-2Nal-D-Cpa-D-3Pal-Ser-Aph(acetyl)-D-Aph(acetyl)-D/L-Agl(acetyl)-Lys(isopropyl)-Pro-D-Ala-NH2 [Betide No. 6C],–,–,4 out of 8,0 out of 8,–
"Ac-β-D-2Nal-(4Cl)D-Phe-D-3Pal-Ser-(4-acetyl-aminobenzyl,methyl)D/L-amidoGly-D-Aph(acetyl)-Leu-Lys(isopropyl)-Pro-D-D-Ala-NH2 [Betide No. 4A]",5 out of 8,0/8,–,–,–
Ac-D-2Nal-D-4Cpa-D-3Pal-Ser-Aph(acetyl)-D-Aph(acetyl)-D/L-Agl(isobutyryl)- Lys(isopropyl)-Pro-D-Ala-NH2 [Betide No. 6A],6 out of 8,0 out of 8,–,0 out of 8,–
"CC(=O)Nc1ccc(C[C@H](NC(=O)[C@H](CO)NC(=O)C(NC(=O)c2cccnc2)NC(=O)[C@@H](Cc2ccc(Cl)cc2)NC(=O)[C@@H](Cc2ccc3ccccc3c2)NC(C)=O)C(=O)N[C@H](Cc2ccc(NC(C)=O)cc2)C(=O)N[C@@H](CC(C)C)C(=O)N[C@@H](CCCCNC(C)C)C(=O)N2CCC[C@H]2C(=O)N[C@H](C)C(N)=O)cc1 (single isomer, unassigned) [Betide No. 1 isomer (2), Ac-D-2Nal-(4Cl)D-Phe-γ-(3-pyridyl)amidoGly-Ser-Aph(acetyl)-D-Aph(acetyl)-Leu-Lys(isopropyl)-Pro-D-Ala-NH2]",6 out of 14,0 out of 5,3 out of 4,–,–
Ac-D-2Nal-(4Cl)D-Phe-D-3Pal-Ser-(4-acetyl-aminobenzyl)D/L-amidoGly-D-Aph(acetyl)-Leu-Lys(isopropyl)-Pro-D-Ala-NH2 [Betide No. 4],–,–,–,–,2 out of 8
"CC(=O)Nc1ccc(C[C@H](NC(=O)C(NC=O)NC(=O)[C@@H](Cc2cccnc2)NC(=O)[C@@H](Cc2ccc(Cl)cc2)NC(=O)[C@@H](Cc2ccc3ccccc3c2)NC(C)=O)C(=O)N[C@H](Cc2ccc(NC(C)=O)cc2)C(=O)N[C@@H](CC(C)C)C(=O)N[C@@H](CCCCNC(C)C)C(=O)N2CCC[C@H]2C(=O)N[C@H](C)C(N)=O)cc1 (single isomer, unassigned) [Betide No. 2B first isomer, Ac-D-2Nal-D-4Cpa-D-3Pal-D/L-Agl(formyl)-Aph(Ac)-D-Aph(Ac)-Leu-Lys(isopropyl)-Pro-D-Ala-NH2]",2 out of 8,–,4 out of 5,–,0/8
"CC(=O)Nc1ccc(C[C@H](NC(=O)C(NC(=O)CO)NC(=O)[C@@H](Cc2cccnc2)NC(=O)[C@@H](Cc2ccc(Cl)cc2)NC(=O)[C@@H](Cc2ccc3ccccc3c2)NC(C)=O)C(=O)N[C@H](Cc2ccc(NC(C)=O)cc2)C(=O)N[C@@H](CC(C)C)C(=O)N[C@@H](CCCCNC(C)C)C(=O)N2CCC[C@H]2C(=O)N[C@H](C)C(N)=O)cc1 (single isomer, unassigned) [Betide No. 2A one of the isomers, Ac-D-2Nal-D-4Cpa-D-3Pal-D/L-Agl(HO-Ac)Aph(Ac)-D-Aph(Ac)-Leu-Lys(isopropyl)-Pro-D-Ala-NH2]",–,–,–,–,2 out of 8
Ac-D-2Nal-D-4Cpa-D-3Pal-Ser-Aph(acetyl)-D-Aph(acetyl)-Leu-D/L-Agl(guanidinoacetyl)-Pro-D-Ala-NH2 [Betide No. 7B],3 out of 4,1 out of 7,–,–,0/4
Ac-D-2Nal-(4Cl)D-Phe-D-3Pal-Ser-Aph(acetyl)-D-Aph(acetyl)-Leu-Lys(isopropyl)-Pro-D/L-Agl(methyl)-NH2 [Example 8B],–,0/8,–,–,–
"CC(=O)Nc1ccc(C[C@H](NC(=O)C(NC(=O)[C@@H](Cc2cccnc2)NC(=O)[C@@H](Cc2ccc(Cl)cc2)NC(=O)[C@@H](Cc2ccc3ccccc3c2)NC(C)=O)N(C)C=O)C(=O)N[C@H](Cc2ccc(NC(C)=O)cc2)C(=O)N[C@@H](CC(C)C)C(=O)N[C@@H](CCCCNC(C)C)C(=O)N2CCC[C@H]2C(=O)N[C@H](C)C(N)=O)cc1 (single isomer, unassigned) [Betide No. 2 other distereomer, Ac-D-2Nal-D-4Cpa-D-3Pal-D/L-(methyl,formyl)aminoGly-Aph(Ac)-D-Aph(Ac)-Leu- Lys(isopropyl)-Pro-D-Ala-NH2]",–,8 out of 8,–,–,–
"CC(=O)Nc1ccc(C[C@H](NC(=O)C(NC(=O)CO)NC(=O)[C@@H](Cc2cccnc2)NC(=O)[C@@H](Cc2ccc(Cl)cc2)NC(=O)[C@@H](Cc2ccc3ccccc3c2)NC(C)=O)C(=O)N[C@H](Cc2ccc(NC(C)=O)cc2)C(=O)N[C@@H](CC(C)C)C(=O)N[C@@H](CCCCNC(C)C)C(=O)N2CCC[C@H]2C(=O)N[C@H](C)C(N)=O)cc1 (single isomer, unassigned) [Betide No. 2A other isomer, Ac-D-2Nal-D-4Cpa-D-3Pal-D/L-Agl(HO-Ac)Aph(Ac)-D-Aph(Ac)-Leu-Lys(isopropyl)-Pro-D-Ala-NH2]",–,–,–,–,4 out of 8
Ac-β-D-2Nal-(4Cl)D-Phe-D-3Pal-Ser-Aph(acetyl)-γ-(4-acetamidophenyl)D/L-amidoGly-Leu-Lys(isopropyl)-Pro-D-Ala-NH2 [Betide No. 5],–,2 out of 8,–,–,1 out of 8
Ac-γ-(2-naphthoyl)amidoGly-4Cl-D-Phe-D-3Pal-Ser-Aph(atz)-D-Aph(atz)- Leu-Lys(isopropyl)-Pro-D-Ala-NH2 [Betide No. 3A second isomer],4 out of 8,0/3,–,–,–
"CC(=O)Nc1ccc(C[C@H](NC(=O)C(NC=O)NC(=O)[C@@H](Cc2cccnc2)NC(=O)[C@@H](Cc2ccc(Cl)cc2)NC(=O)[C@@H](Cc2ccc3ccccc3c2)NC(C)=O)C(=O)N[C@H](Cc2ccc(NC(C)=O)cc2)C(=O)N[C@@H](CC(C)C)C(=O)N[C@@H](CCCCNC(C)C)C(=O)N2CCC[C@H]2C(=O)N[C@H](C)C(N)=O)cc1 (single isomer, unassigned) [Betide No. 2B other isomer, Ac-D-2Nal-D-4Cpa-D-3Pal-D/L-Agl(formyl)-Aph(Ac)-D-Aph(Ac)-Leu-Lys(isopropyl)-Pro-D-Ala-NH2]",6 out of 8,–,–,–,0/8
"Ac-D-2Nal-D-4Cpa-D-3Pal-Ser-Aph(acetyl)-D-Aph(acetyl)-D/L-Agl(methyl,acetyl)-Lys(isopropyl)-Pro-D-Ala-NH2 [Betide No. 6]",–,2 out of 8,–,0 out of 8,–
"CC(=O)Nc1ccc(C[C@H](NC(=O)[C@H](CO)NC(=O)C(NC(=O)c2cccnc2)NC(=O)[C@@H](Cc2ccc(Cl)cc2)NC(=O)[C@@H](Cc2ccc3ccccc3c2)NC(C)=O)C(=O)N[C@H](Cc2ccc(NC(C)=O)cc2)C(=O)N[C@@H](CC(C)C)C(=O)N[C@@H](CCCCNC(C)C)C(=O)N2CCC[C@H]2C(=O)N[C@H](C)C(N)=O)cc1 (single isomer, unassigned) [Betide No. 1 isomer (1), Ac-D-2Nal-(4Cl)D-Phe-γ-(3-pyridyl)amidoGly-Ser-Aph(acetyl)-D-Aph(acetyl)-Leu-Lys(isopropyl)-Pro-D-Ala-NH2]",all 3 rats ovulate,0 out of 7,–,–,–
"CC(=O)Nc1ccc(C[C@H](NC(=O)[C@H](CO)NC(=O)[C@@H](Cc2cccnc2)NC(=O)[C@@H](Cc2ccc(Cl)cc2)NC(=O)C(NC(C)=O)N(C)C(=O)c2ccc3ccccc3c2)C(=O)N[C@H](Cc2ccc(NC(C)=O)cc2)C(=O)N[C@@H](CC(C)C)C(=O)N[C@@H](CCCCNC(C)C)C(=O)N2CCC[C@H]2C(=O)N[C@H](C)C(N)=O)cc1 (single isomer, unassigned) [Betide No. 3C first isomer, Ac-D/L-Agl(methyl,2-naphthoyl)-D-4Cpa-D-3Pal-Ser-Aph(acetyl)-D-Aph(acetyl)-Leu-Lys(isopropyl)-Pro-D-Ala-NH2]",2 out of 8,fully active,–,–,–
"Ac-D-2Nal-D-Cpa-D-3Pal-Ser-Aph(acetyl)-D-Aph(acetyl)-D/L-Agl(methyl,isobutyryl)-Lys(isopropyl)-Pro-D-Ala-NH2 [Betide No. 6B]",2 out of 8,0 out of 8,–,–,–
